Here are results for 4 compounds from patent US20140213513A1 (Sanofi, priority 2012, published 2014).

What all share (type): cell-based
Settings in all cases: Table 7; cAMP formation

Experiment [1] has as its target T1, human GLP-1 receptor (hGLP-1 R) (Homo sapiens, UniProt P43220).
T1 construct: expressed in transfected cells
The experiment in a line: cAMP response of HEK-293 cells stably expressing human GLP-1 receptor (HTRF). Summed up:
(§1)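 Stably transfected HEK-293 cells, accutase-harvested; assay buffer 1×HBSS/20 mM HEPES/0.1% BSA/2 mM IBMX; 400000 cells/ml; compound 30 min, RT; cAMP by HTRF kit.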

Experiment [2] addresses T2, human GIP receptor (hGIP R) (Homo sapiens, UniProt P48546).
T2 construct: expressed in transfected cells
T2 sequence (P48546 22-466): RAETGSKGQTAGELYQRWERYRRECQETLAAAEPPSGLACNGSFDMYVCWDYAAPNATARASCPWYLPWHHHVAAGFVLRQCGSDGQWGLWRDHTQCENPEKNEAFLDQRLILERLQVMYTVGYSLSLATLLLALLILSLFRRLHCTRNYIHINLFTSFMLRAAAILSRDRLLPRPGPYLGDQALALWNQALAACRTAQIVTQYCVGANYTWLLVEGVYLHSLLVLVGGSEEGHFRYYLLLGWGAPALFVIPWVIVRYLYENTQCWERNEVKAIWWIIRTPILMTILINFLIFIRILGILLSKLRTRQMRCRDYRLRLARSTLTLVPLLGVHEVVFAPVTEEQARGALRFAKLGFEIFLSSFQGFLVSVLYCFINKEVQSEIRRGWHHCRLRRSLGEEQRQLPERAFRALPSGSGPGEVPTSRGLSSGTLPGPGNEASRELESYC
The experiment in a line: cAMP response of HEK-293 cells stably expressing human GIP receptor (HTRF). The method in brief:
as §1

Experiment [3] addresses T3, human glucagon receptor (hGLUC R) (Homo sapiens, UniProt P47871).
T3 construct: expressed in transfected cells
The experiment in a line: cAMP response of HEK-293 cells stably expressing human glucagon receptor (HTRF). Summed up:
as §1

*1 amine or outer side, *2 acyl side, *3 side chain or, on linkers, in order; H or OH if unused. Where a SMILES comes first, the peptide text is derived from it. Side-chain parts run from the residue outwards. [ ]: non-standard residue; d: D form. The star is where a group is joined. γGlu = O=C(O)[C@H](CCC(=O)[*:2])N[*:1]; Stearoyl = CCCCCCCCCCCCCCCCCC(=O)*; Palmitoyl = CCCCCCCCCCCCCCCC(=O)*; Aib = CC(C)(N)C(=O)O

T3 sequence (P47871 26-477): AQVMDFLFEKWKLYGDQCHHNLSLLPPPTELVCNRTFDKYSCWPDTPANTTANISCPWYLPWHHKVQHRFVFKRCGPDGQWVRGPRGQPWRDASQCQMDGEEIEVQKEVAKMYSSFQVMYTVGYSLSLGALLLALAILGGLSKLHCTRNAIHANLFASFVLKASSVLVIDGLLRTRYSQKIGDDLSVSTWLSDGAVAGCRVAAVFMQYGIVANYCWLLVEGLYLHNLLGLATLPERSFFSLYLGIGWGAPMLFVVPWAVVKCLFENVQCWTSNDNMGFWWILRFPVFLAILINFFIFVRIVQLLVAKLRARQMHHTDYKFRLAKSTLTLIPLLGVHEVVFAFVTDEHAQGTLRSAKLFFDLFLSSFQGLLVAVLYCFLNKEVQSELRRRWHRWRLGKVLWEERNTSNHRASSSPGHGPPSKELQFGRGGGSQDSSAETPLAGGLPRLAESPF
T1 sequence (P43220 24-463): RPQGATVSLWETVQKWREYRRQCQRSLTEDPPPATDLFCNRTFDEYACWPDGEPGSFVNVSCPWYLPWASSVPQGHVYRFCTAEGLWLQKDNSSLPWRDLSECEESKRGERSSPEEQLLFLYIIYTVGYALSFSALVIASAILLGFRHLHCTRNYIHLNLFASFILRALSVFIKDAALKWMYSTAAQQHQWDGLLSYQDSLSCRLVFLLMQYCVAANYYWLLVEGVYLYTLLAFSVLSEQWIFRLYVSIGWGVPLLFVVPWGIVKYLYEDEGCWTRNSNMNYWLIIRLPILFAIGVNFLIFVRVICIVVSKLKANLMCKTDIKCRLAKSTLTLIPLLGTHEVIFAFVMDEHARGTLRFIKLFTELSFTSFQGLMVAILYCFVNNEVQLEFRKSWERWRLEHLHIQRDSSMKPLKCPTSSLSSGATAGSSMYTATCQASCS

Regarding `CCCCCCCCCCCCCCCC(=O)N[C@@H](CCC(=O)NCCCC[C@H](NC(=O)[C@H](CCC(N)=O)NC(=O)[C@@H](NC(=O)[C@H](CO)NC(=O)[C@H](CC(C)C)NC(=O)[C@H](CC(=O)O)NC(=O)[C@H](CO)NC(=O)[C@@H](NC(=O)[C@H](Cc1ccccc1)NC(=O)[C@@H](NC(=O)CNC(=O)[C@H](CCC(N)=O)NC(=O)C(C)(C)NC(=O)[C@@H](N)Cc1ccc(O)cc1)[C@@H](C)O)[C@@H](C)O)[C@@H](C)CC)C(=O)N[C@@H](CCC(=O)O)C(=O)N[C@@H](CCCCN)C(=O)N[C@@H](CCCNC(=N)N)C(=O)N[C@@H](C)C(=O)N[C@@H](C)C(=O)N[C@@H](Cc1c[nH]cn1)C(=O)N[C@@H](CCC(=O)O)C(=O)N[C@@H](Cc1ccccc1)C(=O)N[C@H](C(=O)N[C@@H](CCC(=O)O)C(=O)N[C@@H](Cc1c[nH]c2ccccc12)C(=O)N[C@@H](CC(C)C)C(=O)N[C@@H](CCCCN)C(=O)N[C@@H](CC(N)=O)C(=O)N[C@H](C(=O)NCC(=O)N1CCC[C@H]1C(=O)N[C@@H](CO)C(=O)N[C@@H](CO)C(=O)NCC(=O)N[C@@H](C)C(=O)N1CCC[C@H]1C(=O)N1CCC[C@H]1C(=O)N1CCC[C@H]1C(=O)N[C@@H](CO)C(N)=O)[C@@H](C)O)[C@@H](C)CC)C(=O)O` [SEQ ID NO: 36, Y-Aib-Q-G-T-F-T-S-D-L-S-I-Q-K(yE-x53)-EKRAAHEFIEWLKNTGPSSGAPPPS-NH2] (H-Y[Aib]QGTFTSDLSIQK([γGlu-Palmitoyl])EKRAAHEFIEWLKNTGPSSGAPPPS-NH2), the 50% effective concentration (EC50) in experiment [1] turned out to be 0.0052 nM; in experiment [2], 0.0301 nM; in experiment [3], 0.0395 nM.

`CCCCCCCCCCCCCCCC(=O)N[C@@H](CCC(=O)NCCCC[C@H](NC(=O)[C@H](CCC(N)=O)NC(=O)[C@@H](NC(=O)[C@H](CO)NC(=O)[C@H](CC(C)C)NC(=O)[C@H](CC(=O)O)NC(=O)[C@H](CO)NC(=O)[C@@H](NC(=O)[C@H](Cc1ccccc1)NC(=O)[C@@H](NC(=O)CNC(=O)[C@H](CCC(=O)O)NC(=O)C(C)(C)NC(=O)[C@@H](N)Cc1ccc(O)cc1)[C@@H](C)O)[C@@H](C)O)[C@@H](C)CC)C(=O)N[C@@H](CCC(=O)O)C(=O)N[C@@H](CCC(=O)O)C(=O)N[C@@H](CCCNC(=N)N)C(=O)N[C@@H](C)C(=O)N[C@@H](C)C(=O)N[C@@H](Cc1c[nH]cn1)C(=O)N[C@@H](CCC(=O)O)C(=O)N[C@@H](Cc1ccccc1)C(=O)N[C@H](C(=O)N[C@@H](CCC(=O)O)C(=O)N[C@@H](Cc1c[nH]c2ccccc12)C(=O)N[C@@H](CC(C)C)C(=O)N[C@@H](CCCCN)C(=O)N[C@@H](CCCNC(=N)N)C(=O)NC(C)(C)C(=O)NCC(=O)N1CCC[C@H]1C(=O)N[C@@H](CO)C(=O)N[C@@H](CO)C(=O)NCC(=O)N[C@@H](C)C(=O)N1CCC[C@H]1C(=O)N1CCC[C@H]1C(=O)N1CCC[C@H]1C(=O)N[C@@H](CO)C(=O)N[C@@H](CCCCN)C(N)=O)[C@@H](C)CC)C(=O)O` [SEQ ID NO: 57, Y-Aib-E-G-T-F-T-S-D-L-S-I-Q-K(yE-x53)-E-E-R-A-A-H-E-F-I-E-W-L-K-R-Aib-G-P-S-S-G-A-P-P-P-S-K-NH2]: the figures for the EC50 in experiment [1], in experiment [2] and in experiment [3] were 0.0071 nM, 0.0157 nM and 14.4 nM, respectively.

As for `CCCCCCCCCCCCCCCC(=O)N[C@@H](CCC(=O)NCCCC[C@H](NC(=O)[C@H](CCC(N)=O)NC(=O)[C@H](CCCCN)NC(=O)[C@H](CO)NC(=O)[C@H](CC(C)C)NC(=O)[C@H](CC(=O)O)NC(=O)[C@H](CO)NC(=O)[C@@H](NC(=O)[C@H](Cc1ccccc1)NC(=O)[C@@H](NC(=O)CNC(=O)[C@H](CCC(N)=O)NC(=O)C(C)(C)NC(=O)[C@@H](N)Cc1ccc(O)cc1)[C@@H](C)O)[C@@H](C)O)C(=O)N[C@@H](CC(=O)O)C(=O)N[C@@H](CO)C(=O)N[C@@H](CCCNC(=N)N)C(=O)N[C@@H](C)C(=O)N[C@@H](C)C(=O)N[C@@H](CCCNC(=N)N)C(=O)N[C@@H](CC(=O)O)C(=O)N[C@@H](Cc1ccccc1)C(=O)N[C@H](C(=O)N[C@@H](CCC(=O)O)C(=O)N[C@@H](Cc1c[nH]c2ccccc12)C(=O)N[C@@H](CC(C)C)C(=O)N[C@@H](CCCCN)C(=O)N[C@@H](C)C(=O)NCC(=O)NCC(=O)N1CCC[C@H]1C(=O)N[C@@H](CO)C(=O)N[C@@H](CO)C(=O)NCC(=O)N[C@@H](C)C(=O)N1CCC[C@H]1C(=O)N1CCC[C@H]1C(=O)N1CCC[C@H]1C(=O)N[C@@H](CO)C(N)=O)[C@@H](C)CC)C(=O)O` [SEQ ID NO: 56, Y-Aib-Q-G-T-F-T-S-D-L-S-K-Q-K(yE-x53)-DSRAARDFIEWLKAGGPSSGAPPPS-NH2] (H-Y[Aib]QGTFTSDLSKQK([γGlu-Palmitoyl])DSRAARDFIEWLKAGGPSSGAPPPS-NH2), the EC50 amounted to 0.0046 nM in experiment [1], 0.162 nM in experiment [2] and 0.0199 nM in experiment [3].

In the case of `CCCCCCCCCCCCCCCCCC(=O)N[C@@H](CCC(=O)NCCCC[C@H](NC(=O)[C@H](CCC(N)=O)NC(=O)[C@@H](NC(=O)[C@H](CO)NC(=O)[C@H](CC(C)C)NC(=O)[C@H](CC(=O)O)NC(=O)[C@H](CO)NC(=O)[C@@H](NC(=O)[C@H](Cc1ccccc1)NC(=O)[C@@H](NC(=O)CNC(=O)[C@H](CCC(=O)O)NC(=O)C(C)(C)NC(=O)[C@@H](N)Cc1ccc(O)cc1)[C@@H](C)O)[C@@H](C)O)[C@@H](C)CC)C(=O)N[C@@H](CCC(=O)O)C(=O)N[C@@H](CO)C(=O)N[C@@H](CCCCN)C(=O)N[C@@H](C)C(=O)N[C@@H](C)C(=O)NC(C)(C)C(=O)N[C@@H](CCC(=O)O)C(=O)N[C@@H](Cc1ccccc1)C(=O)N[C@H](C(=O)N[C@@H](CCC(=O)O)C(=O)N[C@@H](Cc1c[nH]c2ccccc12)C(=O)N[C@@H](CC(C)C)C(=O)N[C@@H](CCCCN)C(=O)N[C@@H](C)C(=O)NCC(=O)NCC(=O)N1CCC[C@H]1C(=O)N[C@@H](CO)C(=O)N[C@@H](CO)C(=O)NCC(=O)N[C@@H](C)C(=O)N1CCC[C@H]1C(=O)N1CCC[C@H]1C(=O)N1CCC[C@H]1C(=O)N[C@@H](CO)C(=O)N[C@@H](CCCCN)C(N)=O)[C@@H](C)CC)C(=O)O` [SEQ ID NO: 16, Y-Aib-E-G-T-F-T-S-D-L-S-I-Q-K(yE-x70)-E-S-K-A-A-Aib-EFIEWLKAGGPSSGAPPPSK-NH2] (H-Y[Aib]EGTFTSDLSIQK([γGlu-Stearoyl])ESKAA[Aib]EFIEWLKAGGPSSGAPPPSK-NH2), the EC50 turned out to be 0.007 nM in experiment [1], 0.0156 nM in experiment [2] and 17 nM in experiment [3].
